Source: patent publication US20180117103A1, “COMPOSITION FOR ANTIOXIDATION AND IMPROVEMENT OF SKIN CONDITIONS” (CELL BIOTECH CO., LTD., priority 2016, published 2018)

Key:
[1] = tested on: superoxide dismutase (SOD); experiment: Activity of superoxide dismutase in serum of white rats, colorimetric assay kit (Test Example 2); format: in vivo, white rats (male, SD rats); conditions: oral administration for 5 weeks
Experimental: In order to examine the change in antioxidant activity by administration of probiotics and vitamin C (group G4) according to the present invention, antioxidant enzyme activity and serum vitamin levels were measured in the following manner. Blood was collected from the orbits of the white rats of Example 1. The collected blood was incubated at room temperature for 2 hours, and then centrifuged at 1500×g at 4° C. for 15 minutes to separate sera, and the separated sera were stored at −80° C. until use in experiments. For measurement of the activity of antioxidant enzyme in the separated sera, the activity of superoxide dismutase in the sera was measured using a superoxide dismutase assay kit based on a colorimetry assay, and the results of the measurement are shown in FIG. 1 and Table 3 below.

[2] = Weight change of white rats on oral administration of probiotics and vitamin C (Test Example 1); format: in vivo, white rats (male, SD rats); conditions: N = 5
Experimental: In order to verify the effect of a combination of probiotics and vitamin C on anti-aging and the like, 4-week-old white rats (male, SD rats, Saeronbio, Korea) were purchased. Two of the animals were housed in each polypropylene cage and acclimated for one week while they were allowed access to feed and water ad libitum. In addition, the animals were housed at a temperature of 24±2° C. and a relative humidity of 40±20% with a 12-hr light/12-hr dark cycle. During the acclimation period, the health of the rats was checked, and among these rats, animals whose activity was not reduced were selected and used in subsequent tests. […] In order to examine the stability and phenotype of each white rat when the probiotics and the vitamin C were administered to the test animals for 5 weeks in Example 1, the weight change patterns of the white rats during the period from the day before administration to 5 weeks after the start of administration in Example 1 were measured, and the results of the measurement are shown in Table 2 below.

[3] = Vitamin C levels in sera of white rats by HPLC; format: in vivo; conditions: male, SD, rat, 1000 mg/head, serum of white rats, oral administration for 5 weeks, read-out: Vit C (serum vitamin C level), Mean ± SD
Experimental: Blood was collected from the orbits of the white rats of Example 1. The collected blood was incubated at room temperature for 2 hours, and then centrifuged at 1500×g at 4° C. for 15 minutes to separate sera, and the separated sera were stored at −80° C. until use in experiments.
For measurement of vitamin C levels in the sera of the white rats prepared in Example 1, high-performance liquid chromatography (HPLC) analysis was performed using a vitamin C reagent kit, and the results of the analysis are shown in FIG. 3 and Table 5 below.

E. faecium = experiment: Distribution of E. faecium in feces of white rats by real-time PCR (Test Example 4); format: in vivo, white rats (male, SD rats); conditions: intestinal feces at 5 weeks after oral administration
Experimental: (§1) In order to examine the change in intestinal microorganisms by administration of probiotics and vitamin C according to the present invention, expression of genesspecific for L. rhamnosus and E. faecium in the test groups (G1 to G4) prepared in Example 1 was measured.
(§2) At 5 weeks after oral administration in Example 1, intestinal feces were isolated from the rats of G1 to G4, and DNA was extracted using an MP bio stool kit according to the manufacturer's protocol. Using the extracted DNA, real-time polymerase chain reaction (PCR) was performed using primers specific for L. rhamnosus and E. faecium. The results are shown in FIGS. 4 and 5 and Tables 6 and 7 below.

L. rhamnosus = experiment: Distribution of L. rhamnosus in feces of white rats by real-time PCR (Test Example 4); format: in vivo, white rats (male, SD rats); conditions: intestinal feces at 5 weeks after oral administration
Experimental: as §1, §2

[4] = tested on: total antioxidant capacity (TAS); experiment: Total antioxidant capacity (TAS) in serum of white rats, colorimetric kit (Test Example 2); format: in vivo, white rats (male, SD rats); conditions: oral administration for 5 weeks
Experimental: In order to examine the change in antioxidant activity by administration of probiotics and vitamin C (group G4) according to the present invention, antioxidant enzyme activity and serum vitamin levels were measured in the following manner. Blood was collected from the orbits of the white rats of Example 1. The collected blood was incubated at room temperature for 2 hours, and then centrifuged at 1500×g at 4° C. for 15 minutes to separate sera, and the separated sera were stored at −80° C. until use in experiments. In order to measure the defense system composed of antioxidant vitamins, non-enzymatic antioxidant substances and antioxidant enzymes, which defend against the toxicity of reactive oxygen species and total antioxidant capacity (TAS) values were measured using a kit of measuring antioxidant activity based on a colorimetry assay.

For `O=C1O[C@H]([C@@H](O)CO)C(O)=C1O` [G3, L-ascorbic acid], the “SOD, Mean ± SD” value [1] was 6.248 ± 0.08967 U/L, the “Change in weight, Mean” value ([2]; 0 week (day before administration), oral) was 137.6 g and the “Change in weight, Mean” value ([2]; 1 week of oral administration) was 178.8 g. The “Change in weight, Mean” value ([2]; 2 weeks of oral administration) was 237.8 g, the “Change in weight, Mean” value ([2]; 3 weeks of oral administration) was 293.0 g and the “Change in weight, Mean” value ([2]; 4 weeks of oral administration) was 338.1 g. For the same compound, the “Change in weight, Mean” value ([2]; 5 weeks of oral administration) was 354.1 g, the concentration at 5 weeks [3] was 32.5 ± 1.29 µM and the “E. faecium, Mean ± SD” value (E. faecium) was 7.032 ± 0.1134 Nlog10/1 g feces. The “L. rhamnosus, Mean ± SD” value (L. rhamnosus) was 7.340 ± 0.09975 Nlog10/1 g feces and the “TAS, Mean ± SD” value [4] was 1.568 ± 0.01708 mmol/L.
